In brackets after ≈: the same amount, converted by molar mass.
Assay: Equilibrium (thermodynamic) solubility, shake-flask method
Format: physicochemical
Conditions: for Solubility S × 10^3 / Solubility x × 10^3 / Solubility x × 10^5 / Solubility S × 10^4 / Solubility x × 10^6: amorphous state; for Solubility S × 10^4 / Solubility x × 10^6: Buffer pH 7.4
Excerpt: The experimental solubility values of hybrids in the selected solvents within the temperature range of 293.15–313.15 K expressed in molarity are summarized in Table 2. The comparative analysis of the reference values of the solubility of compounds I–III at the standard temperature of 298.15 K is given as a histogram in Figure 3.
Shake-flask method as “gold standard” was used for determination thermodynamic solubility synthesized compounds in buffer solutions (pH 2.0 and 7.4) and 1-octanol in the temperature range of 293.15–313.15 K with a step of 5 degrees at atmospheric pressure. Excessive amounts of compound were added to glass vials c 12 mL of selected solvent. The heterogeneous system is closed with a lid and vigorously stirred at the selected temperature in an air thermostat with a stirring device until the solubility equilibrium has been reached. The time required for establishing a constant value of the solution concentration was determined from the solubility kinetic dependences and averaged 2 days. The equilibrated solutions were first survived to aim sedimentation of solid phase during 10 h, then centrifuged at 20,000 rpm for 30 min at specific temperatures, and then quickly filtered using a syringe equipped with a hydrophilic filter Millex-GV 0.22 µm (Ireland). Concentration of saturated solution was measured using spectrophotometer Cary-50 (Varian, USA) with an accuracy of 2–4%. The absorbances of compounds studied were measured at wavelengths 332 and 334 nm in buffer solutions and 1-octanol, respectively. If necessary, an aliquot was diluted with an appropriate solvent. The final pH of the saturated buffers was monitored. The solubility of compounds in each solvent was determined by repeating the procedure three times.
Mole fraction concentration was calculated from solubility value S expressed in mol∙L^−1 using Equation (10):(10) x=M2S/S(M2−M1)+1000ρ, where M1 and M2 are the molar masses of solute and solvent, respectively, and ρ (g∙cm^−3) is the density of the pure solvents. The mole fraction solubilities for buffer solutions were calculated taking into account the buffer compositions. The used values of densities are given in Table S6 in Supplementary Material.

Question: With `Cc1ccc(-n2c(=S)sc3c(=O)n(CCCN4CCN(CC(O)(Cn5cncn5)c5ccc(F)cc5F)CC4)cnc32)cc1` (stereo not shown) [I, 6-[3-[4-[2-(2,4-difluorophenyl)-2-hydroxy-3-(1H-1,2,4-triazol-1-yl)propyl]-1-piperazinyl]propyl]-2,3-dihydro-3-(4-methylphenyl)-2-thioxo-thiazolo[4,5-d]pyrimidin-7(6H)-one] as the compound, how does the “Solubility S × 10^3” value (1-Octanol, 293.15 K) read?
Answer: The value was 7.0781 mol∙L^−1 (printed as S × 10^3).

Question: And the “Solubility x × 10^3” value (1-Octanol, 293.15 K)?
Answer: The value was 1.1199 mol. frac. (printed as x × 10^.

Question: What about the “Solubility S × 10^3” value (1-Octanol, 298.15 K) of the same compound?
Answer: The value was 7.5389 mol∙L^−1 (printed as S × 10^3).

Question: What about the “Solubility x × 10^3” value (1-Octanol, 298.15 K) of the same compound?
Answer: Its value is 1.1981 mol. frac. (printed as x × 10^.

Question: And the “Solubility S × 10^3” value (1-Octanol, 303.15 K)?
Answer: Its value is 8.0826 mol∙L^−1 (printed as S × 10^3).

Question: What about the “Solubility x × 10^3” value (1-Octanol, 303.15 K) of the same compound?
Answer: Its value is 1.2903 mol. frac. (printed as x × 10^.

Question: And the “Solubility S × 10^3” value (1-Octanol, 308.15 K)?
Answer: The value was 8.6264 mol∙L^−1 (printed as S × 10^3).

Question: And the “Solubility x × 10^3” value (1-Octanol, 308.15 K)?
Answer: Its value is 1.3835 mol. frac. (printed as x × 10^.

Question: What about the “Solubility S × 10^3” value (1-Octanol, 313.15 K) of the same compound?
Answer: Its value is 9.2070 mol∙L^−1 (printed as S × 10^3).

Question: And the “Solubility x × 10^3” value (1-Octanol, 313.15 K)?
Answer: The value was 1.4834 mol. frac. (printed as x × 10^.

Question: And the solubility at 2 days (25 °C, organic solvent or mixture, thermodynamic from solid, 1-octanol, text values match 298.15 K, read-out: Solubility S in the alcohol (1-octanol))?
Answer: Its solubility at 2 days is 7.54 mM (≈ 4820 µg/mL).

Question: What about the “Solubility S × 10^3” value (Buffer pH 2.0, 293.15 K) of the same compound?
Answer: Its value is 1.8307 mol∙L^−1 (printed as S × 10^3).

Question: And the “Solubility x × 10^5” value (Buffer pH 2.0, 293.15 K)?
Answer: The value was 3.3040 mol. frac. (printed as x × 10^.

Question: And the “Solubility S × 10^3” value (Buffer pH 2.0, 298.15 K)?
Answer: The value was 1.9773 mol∙L^−1 (printed as S × 10^3).

Question: And the “Solubility x × 10^5” value (Buffer pH 2.0, 298.15 K)?
Answer: Its value is 3.5732 mol. frac. (printed as x × 10^.

Question: And the “Solubility S × 10^3” value (Buffer pH 2.0, 303.15 K)?
Answer: The value was 2.1311 mol∙L^−1 (printed as S × 10^3).

Question: And the “Solubility x × 10^5” value (Buffer pH 2.0, 303.15 K)?
Answer: The value was 3.8570 mol. frac. (printed as x × 10^.

Question: What about the “Solubility S × 10^3” value (Buffer pH 2.0, 308.15 K) of the same compound?
Answer: Its value is 2.3027 mol∙L^−1 (printed as S × 10^3).

Question: What about the “Solubility x × 10^5” value (Buffer pH 2.0, 308.15 K) of the same compound?
Answer: The value was 4.1749 mol. frac. (printed as x × 10^.

Question: What about the “Solubility S × 10^3” value (Buffer pH 2.0, 313.15 K) of the same compound?
Answer: Its value is 2.4851 mol∙L^−1 (printed as S × 10^3).

Question: What about the “Solubility x × 10^5” value (Buffer pH 2.0, 313.15 K) of the same compound?
Answer: Its value is 4.5144 mol. frac. (printed as x × 10^.

Question: And the “Solubility S × 10^4” value (293.15 K)?
Answer: Its value is 1.1295 mol∙L^−1 (printed as S × 10^4).

Question: What about the “Solubility x × 10^6” value (293.15 K) of the same compound?
Answer: The value was 2.0541 mol. frac. (printed as x × 10^.

Question: And the “Solubility S × 10^4” value (298.15 K)?
Answer: Its value is 1.2441 mol∙L^−1 (printed as S × 10^4).

Question: And the “Solubility x × 10^6” value (298.15 K)?
Answer: The value was 2.2653 mol. frac. (printed as x × 10^.

Question: What about the “Solubility S × 10^4” value (303.15 K) of the same compound?
Answer: Its value is 1.3510 mol∙L^−1 (printed as S × 10^4).

Question: And the “Solubility x × 10^6” value (303.15 K)?
Answer: Its value is 2.4636 mol. frac. (printed as x × 10^.

Question: What about the “Solubility S × 10^4” value (308.15 K) of the same compound?
Answer: The value was 1.4682 mol∙L^−1 (printed as S × 10^4).

Question: And the “Solubility x × 10^6” value (308.15 K)?
Answer: The value was 2.6820 mol. frac. (printed as x × 10^.

Question: What about the “Solubility S × 10^4” value (313.15 K) of the same compound?
Answer: Its value is 1.5920 mol∙L^−1 (printed as S × 10^4).

Question: What about the “Solubility x × 10^6” value (313.15 K) of the same compound?
Answer: Its value is 2.9135 mol. frac. (printed as x × 10^.

From paper PMC9573696, “Experimental Examination of Solubility and Lipophilicity as Pharmaceutically Relevant Points of Novel Bioactive Hybrid Compounds” (Molecules, 2022)
